According to EP0609289B1, “IMIDAZOLE DERIVATIVES AND PHARMACEUTICAL COMPOSITIONS CONTAINING THE SAME” (THE UPJOHN COMPANY, priority 1991, dated 1993):

Tests used:
[1] = system: blood pressure increase by angiotensin II; assay: Antagonism to blood pressure increase by angiotensin II in a spine destroyed (pithed) rat (test 4); assay type: in vivo, Wistar rat; conditions: intravenous administration, 3µg/kg angiotensin II, read-out: Inhibition of blood pressure increase by angiotensin II in pithed rat ED50(mg/kg) (test 4)
Description: 4) Antagonism to blood pressure increasing by angiotensin II in a spine destroyed rat
Wistar rat anaesthetized with pentobarbital was fixed at dorsal position, and a cannula for measuring blood pressure was inserted into sinister arteria carotis communis, and a cannula for administration of the test compound into dexter external jugular vein and a cannula for administration of angiotensin II into sinister external jugular vein, ambilateral nervus vagus was cut, and artificial respiration was carried out. A thin bar made of metal was stabbed into spinal column through sinister orbita to destroy spine. Blood pressure was recorded on polygraph via pressure transducer from an arterial cannula. After blood pressure was stable for more than 30 min., 3µg/kg of angiotensin II was administered intravenously four times every 15 min, and every 5 min. before the administration of angiotensin II from the second administration onward, a solvent, a lower dose of the test compound, and a higher dose of the test compound were administered intravenously in this order to observe the blood pressure increasing response by angiotensin II. ED50 values were calculated from the inhibiting rate when the first blood pressure increase by angiotensin II was regarded as 100 %.

Angiotensin II receptor = assay: In vitro angiotensin II mesenteric artery receptor binding assay (test 1); conditions: rat mesenteric artery membrane fraction, 0.2 nM 125I-Ang II, 22°C, 90 minutes
Description: I) In vitro angiotensin II mesenteric artery receptor binding assay
According to the method (1) by Gunther et al., a membrane fraction was prepared from mesenteric artery of male rat, […] protein equivalent of it and 0.2 nM ^125I-Ang II as well as various concentrations of test compounds were incubated at 22°C for 90 minutes in an incubation buffer (50 mM Tris-HCl, 120 mM NaCl, 5 mM MgCl2. 0.25% bovine serum albumin, pH 7.2) (reaction volume; 200 µl). The incubated was cooled, and the reaction was stopped by addition of ice-cooled phosphate buffer (10 mM phosphate, 140 mM NaCI, pH 7.4, hereinafter referred to as PBS), and then the reaction solution was filtered through a glass fiber filter (Whatman CF/B), the filter was washed, dried, and then the radioactivity of captured ^125I-angiotensin II which bound to the receptor was measured by a γ-counter. Non-specific bound amount was obtained from the reaction in the presence of 1 µM of unlabeled angiotensin II. […] Res., 17:278-286, 1980].

Compound	ED50 [1] [mg/kg]	IC50 (Angiotensin II receptor) [nM]
CCCc1nc2c(=O)n3n(c(=O)c2n1Cc1ccc(-c2ccccc2-c2nn[nH]n2)cc1)C(C(=O)OCC)CCC3C (stereo not drawn) [Compound No. 138, ethyl 4,9-dioxo-5-methyl-2-n-propyl-5,6,7,8-tetrahydro-1-[(2'-(1H-tetrazol-5-yl)biphenyl-4-yl)methyl]-1H-1,3,4a,8a-tetraza-cyclopentanaphthalene-8-carboxylate]	0.096	4
CCCCc1nc2c(=O)n3n(c(=O)c2n1Cc1ccc(-c2ccccc2-c2nn[nH]n2)cc1)C1CCC3(C(=O)NC(C)(C)C)CC1 [Compound No. 236, 2-n-butyl-4,9-dioxo-5,8-ethano-5,6,7,8-tetrahydro-1-[{2'-(1H-tetrazol-5-yl)biphenyl-4-yl}methyl]-1H-1,3,4a,8a-tetraza-cyclopentanaphthalene-5-carboxy-N-t-butylamide]	0.11	32
CCCc1nc2c(=O)n3n(c(=O)c2n1Cc1ccc(-c2ccccc2-c2nn[nH]n2)cc1)CC(C)C(C)C3 (stereo not drawn) [Compound No. 50, 6,7-dimethyl-2-n-propyl-5,6,7,8-tetrahydro-1-[(2'-(1H-tetrazol-5-yl)biphenyl-4-yl)methyl]-1H-1,3,4a,8a-tetraza-cyclopentanaphthalene-4,9-dione]	0.2	5.3
CCCc1nc2c(=O)n3n(c(=O)c2n1Cc1ccc(-c2ccccc2-c2nnn[nH]2)cc1)C1CCC3(C(=O)N(CC)CC)CC1 [Compound No. 231, 4,9-dioxo-5,8-ethano-2-n-propyl-5,6,7,8-tetrahydro-1-[{2'-(1H-tetrazol-5-yl)biphenyl-4-yl}methyl]-1H-1,3,4a,8a-tetraza-cyclopentanaphthalene-5-carboxy-N,N-diethylamide]	0.074	9.8
CCCc1nc2c(=O)n3n(c(=O)c2n1Cc1ccc(-c2ccccc2-c2nn[nH]n2)cc1)C(C(=O)O)CCC3C (stereo not drawn) [compound 56, 4,9-dioxo-5-methyl-2-n-propyl-5,6,7,8-tetrahydro-1-[(2'-(1H-tetrazol-5-yl)biphenyl-4-yl)methyl]-1H-1,3,4a,8a-tetraza-cyclopentanaphthalene-8-carboxylic acid]		> 30
CCCc1nc2c(=O)n3n(c(=O)c2n1Cc1ccc(-c2ccccc2-c2nnn[nH]2)cc1)C1(COCC(=O)OC(C)(C)C)CCC3CC1 [Compound No. 225, 8-t-butoxycarboxylmethoxymethyl-5,8-ethano-2-n-propyl-5,6,7,8-tetrahydro-1-[{2'-(1H-tetrazol-5-yl)biphenyl-4-yl}methyl]-1H-1,3,4a,8a-tetraza-cyclopentanaphthalene-4,9-dione]		66
CCCc1nc2c(=O)n3n(c(=O)c2n1Cc1ccc(-c2ccccc2-c2nnn[nH]2)cc1)C1(COCC(C)O)CCC3CC1 (stereo not drawn) [Compound No. 229, 5,8-ethano-8-(2-hydroxypropyl)methoxymethyl-2-n-propyl-5,6,7,8-tetrahydro-1-[{2'-(1H-tetrazol-5-yl)biphenyl-4-yl}methyl]-1H-1,3,4a,8a-tetraza-cyclopentanaphthalene-4,9-dione]		8.7
CCCCc1nc2c(=O)n3n(c(=O)c2n1Cc1ccc(-c2ccccc2-c2nnn[nH]2)cc1)C1(CO)CCC3CC1 [Compound No. 222, 2-n-butyl-5,8-ethano-8-hydroxymethyl-5,6,7,8-tetrahydro-1-[{2'-(1H-tetrazol-5-yl)biphenyl-4-yl}methyl]-1H-1,3,4a,8a-tetraza-cyclopentanaphthalene-4,9-dione]	0.56	3
CCCc1nc2c(=O)n3n(c(=O)c2n1Cc1ccc(-c2ccccc2-c2nn[nH]n2)cc1)CC(CC)=C(CC)C3 [Compound No. 359, 6,7-diethyl-5,8-dihydro-2-n-propyl-5,6,7,8-tetrahydro-1-[{2'-(1H-tetrazol-5-yl)biphenyl-4-yl}methyl]-1H-1,3,4a,8a-tetraza-cyclopentanaphthalene-4,9-dione]		35
CCCc1nc2c(=O)n3n(c(=O)c2n1Cc1ccc(-c2ccccc2-c2nn[nH]n2)cc1)C(C)CCC3c1nc(C)no1 (stereo not drawn) [Compound No. 329, 8-methyl-5-(3-methyloxadiazol-5-yl)-2-n-propyl-5,6,7,8-tetrahydro-1-[{2'-(1H-tetrazol-5-yl)biphenyl-4-yl}methyl]-1H-1,3,4a,8a-tetraza-cyclopentanaphthalene-4,9-dione]		65
CCCc1nc2c(n1Cc1ccc(-c3ccccc3-c3nnn[nH]3)cc1)C(=O)N1C(c3ccccc3)CCCN1C2 (stereo not drawn) [Compound No. 470, 8-phenyl-2-n-propyl-5,6,7,8-tetrahydro-1-[{2'-(1H-tetrazol-5-yl)biphenyl-4-yl}methyl]-1H,4H-1,3,4a,8a-tetraza-cyclopentanaphthalene-9-one]		20
CCCCc1nc2c(=O)n3n(c(=O)c2n1Cc1ccc(-c2ccccc2-c2nn[nH]n2)cc1)C1(C(=O)NC(C)(C)C)CCC3CC1 [Compound No. 238, 2-n-butyl-4,9-dioxo-5,8-ethano-5,6,7,8-tetrahydro-1-[{2'-(1H-tetrazol-5-yl)biphenyl-4-yl}methyl]-1H-1,3,4a,8a-tetraza-cyclopentanaphthalene-8-carboxy-N-t-butylamide]		> 100
CCCc1nc2c(=O)n3n(c(=O)c2n1Cc1ccc(-c2ccccc2-c2nnn[nH]2)cc1)C1CCC3(COCC(C)O)CC1 (stereo not drawn) [Compound No. 227, 5,8-ethano-5-(2-hydroxypropyl)methoxynethyl-2-n-propyl-5,6,7,8-tetrahydro-1-[{2'-(1H-tetrazol-5-yl)biphenyl-4-yl}methyl]-1H-1,3,4a,8a-tetraza-cyclopentanaphthalene-4,9-dione]		38
CCCCc1nc2c(n1Cc1ccc(-c3ccccc3-c3nn[nH]n3)cc1)C(=O)N1N(C2)C2CCC1(C)CC2 [Compound No. 447, 2-n-butyl-5,8-ethano-8-methyl-5,6,7,8-tetrahydro-1-[{2'-(1H-tetrazol-5-yl)biphenyl-4-yl}methyl]-1H,4H-1,3,4a,8a-tetraza-cyclopentanaphthalene-9-one]		2.5
CCCCc1nc2c(n1Cc1ccc(-c3ccccc3-c3nnn[nH]3)cc1)CN1C(C)CCC(CO)N1C2=O (stereo not drawn) [Compound No. 538, 2-n-butyl-5-hydroxymethyl-8-methyl-5,6,7,8-tetrahydro-1-[{2'-(1H-tetrazol-5-yl)biphenyl-4-yl}methyl]-1H-9H-1,3,4a,8a-tetraza-cyclopentanaphthalene-4-one]		> 100
CCCCc1nc2c(n1Cc1ccc(-c3ccccc3-c3nnn[nH]3)cc1)CN1C(CO)CCC(C)N1C2=O (stereo not drawn) [Compound No. 540, 2-n-butyl-8-hydroxymethyl-5-methyl-5,6,7,8-tetrahydro-1-[{2'-(1H-tetrazol-5-yl)biphenyl-4-yl}methyl]-1H,9H-1,3,4a,8a-tetraza-cyclopentanaphthalene-4-one]		34
CCc1nc2c(=O)n3n(c(=O)c2n1Cc1ccc(-c2ccccc2-c2nnn[nH]2)cc1)C1CCC3CC1 [compound 543, 5,8-ethano-2-ethyl-5,6,7,8-tetrahydro-1-[{2'-(1H-tetrazol-5-yl)biphenyl-4-yl}methyl)-1H-1,3,4a,8a-tetraza-cyclopentanaphthalene-4,9-dione]		26
CCCCc1nc2c(=O)n3n(c(=O)c2n1Cc1ccc(-c2ccccc2-c2nn[nH]n2)cc1)C1(C(=O)OCC)CCC3CC1 [Compound No. 198, ethyl 2-n-butyl-4,9-dioxo-5,8-ethano-5,6,7,8-tetrahydro-1-[{2'-(1H-tetrazol-5-yl)biphenyl-4-yl}methyl]-1H-1,3,4a,8a-tetraza-cyclopentanaphthalene-8-carboxylate]		> 100
2-n-butyl-8-hydroxymethyl-5-methyl-5,6,7,8-tetrahydro-1H,4H-1,3,4a,8a-tetraza-cyclopentanaphthalene-9-one [Compound No. 542]		34
CCCc1nc2c(=O)n3n(c(=O)c2[nH]1)C1CCC3(C(C)(C)O)CC1 [Compound No. 323, 5,8-ethano-5-(1-hydroxy-1-methylethyl)-2-n-propyl-5,6,7,8-tetrahydro-1H-1,3,4a,8a-tetraza-cyclopentanaphthalene-4,9-dione]		> 100
CCCc1nc2c(n1Cc1ccc(-c3ccccc3-c3nn[nH]n3)cc1)C(=O)N1CC(CC)=C(CC)CN1C2 [Compound No. 390, 6,7-diethyl-5,8-dihydro-2-n-propyl-1-[{2'-(1H-tetrazol-5-yl)biphenyl-4-yl}methyl]-1H,4H-1,3,4a,8a-tetraza-cyclopentanaphthalene-9-one]		35
CCCCc1nc2c(=O)n3n(c(=O)c2n1Cc1ccc(-c2ccccc2-c2nn[nH]n2)cc1)C1CCC3(C(=O)OC)CC1 [Compound No. 159, methyl 2-n-butyl-5,8-ethano-4,9-dioxo-5,6,7,8-tetrahydro-1-[{2'-(1H-tetrazol-5-yl)biphenyl4-yl}methyl]-1H-1,3,4a,8a-tetraza-cyclopentanaphthalene-5-carboxylate]		5.1
